Assay results: the supplement of paper PMC13380429

Legend:
Settings in all cases: 72 h
Vero E6 [1] = experiment: cell viability relative to DMSO; higher = less toxic
U2OS [2] = experiment: as above
Calu-3 [3] = experiment: as above
HepG2 [4] = experiment: as above
Caco-2 [5] = experiment: as above
Vero E6 [6] = experiment: drug sensitivity score (DSS) for viability; higher = more toxic; extreme values may be limits of the assay
U2OS [7] = experiment: as above
Calu-3 [8] = experiment: as above
HepG2 [9] = experiment: as above
Caco-2 [10] = experiment: as above
Vero E6 [11] = experiment: relative viability EC50 (midpoint between 100% and the lowest measured viability); higher = less toxic
U2OS [12] = experiment: as above
Calu-3 [13] = experiment: as above
HepG2 [14] = experiment: as above
Caco-2 [15] = experiment: as above

Structure (SMILES)	cell viability (Vero E6 [1]; 1 nM)	cell viability (Vero E6 [1]; 10 nM)	cell viability (Vero E6 [1]; 100 nM)	cell viability (Vero E6 [1]; 1000 nM)	cell viability (Vero E6 [1]; 10000 nM)	cell viability (U2OS [2]; 1 nM)	cell viability (U2OS [2]; 10 nM)	cell viability (U2OS [2]; 100 nM)	cell viability (U2OS [2]; 1000 nM)	cell viability (U2OS [2]; 10000 nM)	cell viability (Calu-3 [3]; 1 nM)	cell viability (Calu-3 [3]; 10 nM)	cell viability (Calu-3 [3]; 100 nM)	cell viability (Calu-3 [3]; 1000 nM)	cell viability (Calu-3 [3]; 10000 nM)	cell viability (HepG2 [4]; 1 nM)	cell viability (HepG2 [4]; 10 nM)	cell viability (HepG2 [4]; 100 nM)	cell viability (HepG2 [4]; 1000 nM)	cell viability (HepG2 [4]; 10000 nM)	cell viability (Caco-2 [5]; 1 nM)	cell viability (Caco-2 [5]; 10 nM)	cell viability (Caco-2 [5]; 100 nM)	cell viability (Caco-2 [5]; 1000 nM)	cell viability (Caco-2 [5]; 10000 nM)	drug sensitivity score (Vero E6 [6])	drug sensitivity score (U2OS [7])	drug sensitivity score (Calu-3 [8])	drug sensitivity score (HepG2 [9])	drug sensitivity score (Caco-2 [10])	relative viability EC50 (Vero E6 [11])	relative viability EC50 (U2OS [12])	relative viability EC50 (Calu-3 [13])	relative viability EC50 (HepG2 [14])	relative viability EC50 (Caco-2 [15])
CCc1nc2c(C)nc(C)cc2n1-c1ccc(CCNC(=O)NS(=O)(=O)c2ccc(C)cc2)cc1 [grapiprant]	101%	97.7%	97.3%	95.6%	96.6%	98%	96.3%	97.7%	99.3%	96.8%	102%	89.9%	103%	96.1%	104%	103%	101%	104%	99.2%	97.6%	101%	90.4%	101%	102%	93.8%	0	0	0	0	0	> 10 µM	> 10 µM	> 10 µM	> 10 µM	> 10 µM
Cc1cc2ncc(C(=O)NCC(C)(C)NCC(=O)N3CCC[C@H]3C#N)cn2n1 [anagliptin]	99.2%	99.5%	102%	98.8%	106%	99.9%	101%	96.2%	104%	98.5%	97.3%	102%	94.9%	94.6%	98.8%	102%	94.2%	102%	104%	97.9%	103%	93.3%	94.6%	97.8%	100%	0	0	0	0	0	> 10 µM	> 10 µM	> 10 µM	> 10 µM	> 10 µM
CCO/N=C(\C(=O)N[C@@H]1C(=O)N2C(C(=O)[O-])=C(Sc3nc(-c4cc[n+](C)cc4)cs3)CS[C@H]12)c1nsc(NP(=O)(O)O)n1 [ceftaroline-fosamil]	106%	99.6%	107%	97.9%	102%	103%	106%	99.5%	107%	102%	116%	109%	98.4%	106%	98.6%	116%	95.2%	105%	101%	104%	94.2%	101%	89.4%	105%	93.2%	0	0	0	0	0	> 10 µM	> 10 µM	> 10 µM	> 10 µM	> 10 µM
CN1CCN(CC(=O)N2c3ccccc3C(=O)Nc3cccnc32)CC1 [pirenzepine]	103%	101%	98.4%	103%	102%	96.1%	93.8%	99.6%	98.7%	101%	97.5%	87.3%	104%	96.3%	103%	113%	99.9%	88.9%	103%	97.7%	85.5%	103%	99.9%	93.9%	95%	0	0	0	0	0	> 10 µM	> 10 µM	> 10 µM	> 10 µM	> 10 µM
CNC(=O)c1c(-c2ccc(F)cc2)oc2cc(N(CCO)S(C)(=O)=O)c(C3CC3)cc12 [nesbuvir]	98.4%	97%	98.6%	93.6%	103%	93.3%	102%	96.4%	99.9%	102%	108%	107%	99.9%	110%	103%	97.3%	90%	103%	92.2%	107%	94%	101%	95%	99%	101%	0	0	0	0	0	> 10 µM	> 10 µM	> 10 µM	> 10 µM	> 10 µM
CC1(C)OC[C@@H](COC(=O)CCc2ccc(OC[C@@H](O)CNCCNC(=O)N3CCOCC3)cc2)O1 [landiolol]	96.2%	97.4%	93.4%	94.6%	96.6%	98.4%	99.2%	96.9%	101%	97.1%	105%	97.7%	97.2%	104%	101%	81.9%	106%	104%	86.3%	96.8%	111%	103%	98.2%	108%	107%	0	0	0	0	0	> 10 µM	> 10 µM	> 10 µM	> 10 µM	> 10 µM
O=C1NCN(c2ccccc2)C12CCN(CC1COc3ccccc3O1)CC2 (stereo not given) [spiroxatrine]	103%	99.8%	104%	97.9%	109%	106%	98%	99.3%	94.8%	99%	98.3%	99%	92%	100%	104%	87.5%	94.3%	87.6%	104%	103%	95.2%	101%	101%	100%	98.2%	0	0	0	0	0	> 10 µM	> 10 µM	> 10 µM	> 10 µM	> 10 µM
CCOC(=O)c1ccc(-c2ccc(OC(=O)N(C)Cc3cccc(-c4ccncc4)c3)cc2)cc1 [WWL-113]	94.7%	98.4%	92.5%	99.6%	91.4%	104%	97.3%	98.9%	95.9%	97.8%	108%	93.6%	108%	99.1%	106%	100%	106%	96.5%	107%	38.1%	97.4%	102%	105%	96.5%	92.8%	0	0	0	2.9	0	> 10 µM	> 10 µM	> 10 µM	3.7 µM	> 10 µM
O=C(O)COc1cccc(-c2ocnc2-c2nc(-c3ccccc3)c(-c3ccccc3)o2)c1	99%	104%	102%	104%	101%	102%	97.7%	97.5%	102%	101%	92.9%	95.8%	95%	100%	105%	105%	102%	93.6%	95%	105%	109%	101%	95.5%	94.4%	81.8%	0	0	0	0	0.7	> 10 µM	> 10 µM	> 10 µM	> 10 µM	> 10 µM
Cc1nc(C)c(Cl)c(O)c1Cl [clopidol]	96.9%	95.9%	101%	96.6%	95.2%	98.3%	96.2%	92.4%	97.7%	92.5%	105%	94.2%	93.6%	101%	102%	100%	99.9%	104%	99.2%	116%	96.9%	100%	94.1%	99.2%	92.7%	0	0	0	0	0	> 10 µM	> 10 µM	> 10 µM	> 10 µM	> 10 µM
Nc1ccn([C@H]2C[C@H](O)[C@@H](CO)O2)c(=O)n1 [torcitabine]	104%	95.7%	90.2%	95.2%	101%	102%	106%	99.1%	104%	95.5%	100%	94.6%	91.9%	99.9%	85.6%	105%	94.3%	94.6%	104%	98.8%	105%	95%	101%	97.1%	86.5%	0	0	0	0	0.3	> 10 µM	> 10 µM	> 10 µM	> 10 µM	> 10 µM
NC(=O)c1cn(Cc2c(F)cccc2F)nn1 [rufinamide]	101%	101%	101%	97.9%	103%	99.6%	100%	101%	98%	104%	101%	97.7%	99.1%	101%	100%	109%	102%	94.1%	101%	97.4%	111%	97.4%	93.3%	97.1%	104%	0	0	0	0	0	> 10 µM	> 10 µM	> 10 µM	> 10 µM	> 10 µM
C[C@@]12CC[C@@H]3[C@@](CC[C@H]4[C@@]3(C)CCC[C@@]4(C)C(=O)O)(CC1=O)C2 [isosteviol]	97.8%	99.6%	98.5%	97.5%	106%	101%	101%	96.8%	96.5%	98.1%	103%	105%	112%	110%	94.5%	94.4%	91.4%	100%	99.5%	107%	87.5%	99.9%	89.2%	95.2%	109%	0	0	0	0	0	> 10 µM	> 10 µM	> 10 µM	> 10 µM	> 10 µM
Clc1ccc(N2CCN(Cc3c[nH]c4ncccc34)CC2)cc1	94.9%	102%	97.4%	96.2%	102%	96.1%	98.2%	95.9%	102%	92.2%	88.6%	99.1%	101%	92.9%	87.9%	102%	93.8%	97.1%	93.6%	79.8%	103%	98.1%	95.5%	93.5%	87%	0	0	0	1.1	0.1	> 10 µM	> 10 µM	> 10 µM	> 10 µM	> 10 µM
